From US20090298077A1, “ASSAY FOR MEASUREMENT OF APURINIC/APYRIMIDINIC (AP) SITES AND FOR SCREENING AP-SITE REACTIVE COMPOUNDS” (priority 2006, published 2009)

Assays:
Type in all cases: cell-based
[1] = system: SW480 colon cancer cells; test: FARP assay of AP sites in DNA from drug-treated SW480 cells; details: 2 hrs at 37° C., MX 12.5 mM where combined
Procedure: (§1) 100 μL of 5 μM FARP in phosphate buffer (10 mM, pH 7.0) was added to 200 μL phosphate buffer (10 mM, pH 7.0) containing 10 μg of DNA extracted from cells, individual AP-DNA standard (10, 20, 40, 80, 160, 320, and 640 nM AP), and blank AP-DNA control, respectively. After vortexing, the reaction was allowed to proceed at room temperature for 15 min. At the end of the reaction 200 μL ammonium acetate (7.5M) and 1000 μL ice-cold ethanol (100%) were added. The solution was mixed gently by inverting the tube before keeping it at −20° C. for 30 min. Each tube was centrifuged at 4° C. and 12,000 g for 10 min. The supernatant was poured out carefully so that no loss of FARP-AP-DNA took place. 1200 μL of ice-cold ethanol (70%) was added to each tube to remove the free FARP by centrifugation at 4° C. and 12,000 g for 10 min. This washing step with 70% ice-cold ethanol was repeated two more times. After discarding the supernatant, the FARP-AP-DNA precipitate in the tube was dried at room temperature for 30 min. in a venting hood. The FARP-AP-DNA precipitate was hydrated and resuspended in 200 μL of phosphate buffer (10 mM, pH 9.0) at room temperature for 1 hr. The fluorescence intensity of the resultant FARP-AP-DNA solution was measured by the FluoroMax-2 spectrofluorometer. A calibration curve could be constructed by plotting the fluorescence intensity versus the concentration of AP sites.
(§2) Adherent SW480 colon cancer cells (from the American Type Culture Collection (Manassas, Va., USA), and human nonadherent mononuclear cells from heparinized peripheral blood of a normal donor, which were purified by the Ficoll-Hypaque density gradient centrifugation technique, were used in the in vitro experiments of TMZ and MX.
(§3) The cells (5×10^6 cells) were plated in 100-mm culture dishes and treated by TMZ alone at various concentrations (0, 187, 375, 750, and 1500 μM), and together with MX (12.5 mM) for 2 hrs at 37° C. At the end of treatment, the cells were washed by either rinsing the SW480 cells on dishes (SW480) or centrifugation of the human cells in tubes with the media. […]

[2] = system: human nonadherent mononuclear cells; test: FARP assay of AP sites in DNA from drug-treated human nonadherent mononuclear cells; details: human nonadherent cell, 2 hrs at 37° C., MX 12.5 mM where combined
Procedure: as §1, §2
as §3, with “media. After plating the cells in dishes with fresh media, 3 mM MX was added to the dishes that were treated with TMZ and MX together. The cells were harvested by centrifugation at […] after the treatment of 3 mM MX.” for “media.”

[3] = system: human nonadherent mononuclear cells; test: ARP assay of AP sites in DNA from drug-treated human nonadherent mononuclear cells; details: human nonadherent cell, 2 hrs at 37° C., MX 12.5 mM where combined
Source text: (§4) An ARP method modified for the slot-blot vacuum filter device was used in this work. […]

[4] = system: SW480 colon cancer cells; test: ARP assay of AP sites in DNA from drug-treated SW480 cells; details: 2 hrs at 37° C., MX 12.5 mM where combined
Source text: as §4

With `Cn1nnc2c(C(N)=O)ncn2c1=O` [TMZ, 3,4-dihydro-3-methyl-4-oxoimidazo[5,1-d]-as-tetrazine-8-carboxamide] the “FARP Assay Fluorescence Intensity/10^4” value ([1]; SW480, TMZ 187 μM) was 2.428, the “FARP Assay Fluorescence Intensity/10^4” value ([1]; SW480, TMZ 375 μM) was 3.691 and the “FARP Assay Fluorescence Intensity/10^4” value ([1]; SW480, TMZ 750 μM) was 5.310. For the same compound, the “FARP Assay Fluorescence Intensity/10^4” value ([2]; TMZ 187 μM) was 1.622, the “FARP Assay Fluorescence Intensity/10^4” value ([2]; TMZ 375 μM) was 3.138 and the “FARP Assay Fluorescence Intensity/10^4” value ([2]; TMZ 750 μM) was 4.201. The “FARP Assay Fluorescence Intensity/10^4” value ([2]; TMZ 1500 μM) was 15.77, the “ARP Assay Band Intensity/10^3” value ([3]; TMZ 187 μM) was 2.201 and the “ARP Assay Band Intensity/10^3” value ([3]; TMZ 375 μM) was 3.524. For the same compound, the “ARP Assay Band Intensity/10^3” value ([3]; TMZ 750 μM) was 4.352, the “ARP Assay Band Intensity/10^3” value ([3]; TMZ 1500 μM) was 5.844 and the “ARP Assay Band Intensity/10^3” value ([4]; SW480, TMZ 187 μM) was 1.420. For the same compound, the “ARP Assay Band Intensity/10^3” value ([4]; SW480, TMZ 375 μM) was 2.723 and the “ARP Assay Band Intensity/10^3” value ([4]; SW480, TMZ 750 μM) was 5.233.
